From ChEMBL document CHEMBL1130445, “The synthesis of CD-ring modified 1,25-dihydroxy vitamin D analogues: Six-membered D-ring analogues I” (1997)

Assays:
[1] = tested on: HL-60; assay: Biological evaluation in vitro on HL-60 cell line; format: functional, Homo sapiens; design: reference not given here
[2] = tested on: Keratinocyte; assay: Biological evaluation in vitro on keratinocytes; format: functional; design: reference not given here
[3] = tested on: MG-63; assay: Biological evaluation in vitro on MG-63 cell line; format: functional, Homo sapiens; design: reference not given here
[4] = tested on: MCF7; assay: Biological evaluation in vitro on MCF-7 cell line; format: functional, Homo sapiens; design: reference not given here
[5] = tested on: Mus musculus; assay: The in vivo effect was tested in vitamin D-deplete normal NMRI mice by measuring calcium levels in serum.; format: functional; design: reference not given here
[6] = target: T1, Vitamin D3 receptor (Sus scrofa) (UniProt A3RGC1); assay: Inhibition of 1-alpha,25(OH)2 D3 binding to pig intestinal mucosa Vitamin D3 receptor (VDR); format: tissue-based
T1 sequence (whole entry): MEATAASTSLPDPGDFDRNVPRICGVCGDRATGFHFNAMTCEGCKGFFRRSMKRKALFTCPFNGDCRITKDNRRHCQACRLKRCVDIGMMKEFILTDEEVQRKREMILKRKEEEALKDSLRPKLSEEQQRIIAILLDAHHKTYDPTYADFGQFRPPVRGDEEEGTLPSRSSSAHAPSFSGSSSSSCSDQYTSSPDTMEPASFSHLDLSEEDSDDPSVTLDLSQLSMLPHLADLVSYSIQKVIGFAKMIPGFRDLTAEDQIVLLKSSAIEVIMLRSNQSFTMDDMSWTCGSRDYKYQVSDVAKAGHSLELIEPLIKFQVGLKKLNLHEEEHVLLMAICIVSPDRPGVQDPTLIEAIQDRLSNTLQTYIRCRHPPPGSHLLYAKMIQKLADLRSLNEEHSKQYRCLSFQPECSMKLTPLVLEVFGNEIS

Relative affinity [6] | Compound | Biological evaluation [1] | Biological evaluation [2] | Biological evaluation [3] | Biological evaluation [4] | Biological evaluation [5]
60 | C=C1C(=CC=C[C@H]2CCC[C@H]([C@H](C)CCCCC(O)(CC)CC)C2(C)C)C[C@@H](O)C[C@@H]1O | 600 | 1500 | 800 | 3000 | 20
0.9 | C=C1C(=CC=C[C@H]2CCC[C@H]([C@@H](C)CCCC(C)(C)O)C2(C)C)C[C@@H](O)C[C@@H]1O | 1 | 8 | 1 | 0 | <0.1
0.5 | C=C1C(=CC=C[C@@H]2CCC[C@H]([C@@H](C)CCCC(C)(C)O)C2(C)C)C[C@@H](O)C[C@@H]1O | 1 | 8 | 1 | 0 | 0.1
125 | C=C1C(=CC=C[C@@H]2CCC[C@H]([C@H](C)CCCC(C)(C)O)C2(C)C)C[C@@H](O)C[C@@H]1O | 90 | 300 | 300 | 300 | 4
1 | C=C1C(=CC=C[C@H]2CCC[C@H]([C@H](C)CCCC(C)(C)O)C2(C)C)C[C@@H](O)C[C@@H]1O | 2 | 30 | 3 | 1 | <0.1
